Measurements as given in patent EP2518139A1, “Use of indirubin derivatives for producing pluripotent stem cells” (Universitätsklinikum Jena, priority 2011, dated 2012).
Residues, ends and D or L forms follow the SMILES beside them. *: point of attachment. Cbz = O=C(OCc1ccccc1)*

Tests used:
Smad1/5/8 = assay: Immunoblot of p-Smad1/5/8 and pan-Smad1/5/8 in HeLa cells; format: cell-based, human
[1] = system: BMP- and TGFß-relative R-Smads; assay: Immunoblot of BMP- and TGFß-relative R-Smads in HeLa cells (TGFß or FCS stimulation); format: cell-based, human; details: 24h, E738 (1µM), Bio (5µM), DM (1µM), Repsox (10µM); for P- and pan-Smads (R-Smads): TGFß (20ng/mL)
p38 = details: reported by Zhu et al.; cited from earlier work
[2] = system: mono-, di- and poly-ubiquitins; assay: Immunoblot of ubiquitins in HeLa cells; format: cell-based, human; details: BMP-stimulated HeLa, 24h; MG132 5µM, E738 (1µM)
Protocol: Western blot:: Cell extracts were homogenized in Urea-Lysis buffer (1mM EDTA,0.5% Triton X-100), 5mM NaF, 6M Urea, 1mM Na3VO4, 10µg/mL Pepstatin, 100µM PMSF and 3µg/mL Aprotinin in PBS). Enhanced chemiluminescence (ECL) Western blot analysis was performed. 20-40µg of total protein was resolved on 10% SDS-PAGE gels and immunoblotted with specific antibodies. Primary antibodies were incubated at a 1:1,000 dilution in TBS (pH 7.5) with 0.1% Tween-20 and 5% BSA/nonfat milk with gentle agitation overnight at 4°C. The proper secondary antibodies were incubated in TBS (pH 7.5) with 5% BSA/nonfat milk and 0.1 % Tween-20 at a 1:5,000 dilution for 1 h at room temperature.
Ubiquitin-proteasome degradation system is the major route to protein degradation. To identify if indirubin-induced degradation is conducted by proteasome, we utilized MG132, a general proteasome inhibitor, to characterize the role of proteasome in degradation. We found 5µM MG132 was sufficient to rescue the E738 mediated Smad1/5/8 […] 24h after treatment (Fig. 5E and 5F). […] Thus we interpreted that E738 might be able to promote degradation of polymerased ubiquintins through activating the formation of complexes with certain substrates, speculatively like Smad1/2/3/5/8, leading to accelerate the recycling of mono-ubiquitin, while MG132 blocked the degradation of these complexes and arrest such recycling. […]

[3] = BMP2 (100ng/mL), 24h, compound at 5µM

[Cl-].[Li+] [LiCl, reference compound]
BMP activated Smad1/5/8 and level of pan Smad1/5/8 (Smad1/5/8; BMP, LiCl (30mM), 24h): can attenuate BMP activated Smad1/5/8, but not change the level of pan Smad1/5/8

Cc1cccc(-c2[nH]ncc2-c2ccc3ncccc3n2)n1 [Repsox]
activation of both types of R-Smads ([1]; FCS 10%): only partly | P- and pan-Smads (R-Smads) [1]: inhibited TGFß-mediated activation of Smad3, but not Smad1/5/8 or total R-Smads protein

C[C@@H]1C[C@@H]([C@H](O)CC2CC(=O)NC(=O)C2)C(=O)[C@@H](C)C1 [CHX, cyclohexamide, reference compound]
signal of Smad1/5/8 (Smad1/5/8; BMP2, CHX (10µM), 24h): weaker signal of Smad1/5/8 | influence on the E738 induced degradation of Smad1/5/8 (Smad1/5/8; BMP2, mixture of E738 (1µM) and CHX 10µM, 24h): no influence on the degradation

O=C1Nc2cc(Br)ccc2/C1=C1/Nc2ccccc2/C1=N\O [BIO, 6-Bromo-indirubin-3'-oxim, reference compound]
level of pan Smad1/5/8 (Smad1/5/8; [3]): slightly decreased pan-Smad1/5/8 | phosphorylation (activation) of Smad1/5/8 (Smad1/5/8; [3]): clearly blocked the activation of Smad1/5/8 | P- and pan-Smads (R-Smads) [1]: attenuated effects

O=C1Nc2ccccc2/C1=C1/Nc2ccccc2/C1=N\O [E231, Indirubin-3'-oxim]
phosphorylation of p38 (p38): can stimulate the phosphorylation of p38 | p-Smad1/5/8 at C-termini and pan-Smad1/5/8 levels (Smad1/5/8; BMP2 (100ng/mL), 24h, compound at 1µM): slightly decreased | level of pan Smad1/5/8 (Smad1/5/8; [3]): induced the reduction only partly | phosphorylation (activation) of Smad1/5/8 (Smad1/5/8; [3]): strongly blocked the phosphorylation

CC(C)C[C@@H](C=O)NC(=O)[C@H](CC(C)C)NC(=O)[C@H](CC(C)C)NC(=O)OCc1ccccc1 [MG132, reference compound] (Cbz-Leu-Leu-Leu-aldehyde)
mono-, di- and poly-ubiquitins [2]: significantly stabilized mono-, di- and poly-ubiquitins | concentration sufficient to rescue the E738 mediated Smad1/5/8 ubiquitination (Smad1/5/8; BMP, 24h after treatment): 5 µM | p-Smad1/5/8 (Smad1/5/8; BMP, MG (5µM) with/without E738): accumulation of p-Smad1/5/8 was observed

C[S+]([O-])c1ccc(-c2nc(-c3ccncc3)c(-c3ccc(F)cc3)[nH]2)cc1 (stereo not shown) [SB203580, reference compound]
level of pan Smad1/5/8 (Smad1/5/8; BMP, MAPK inhibitor alone or in combination with E738): neither alter the level of pan Smad1/5/8 alone, nor attenuate the E738-mediated degradation in combination with E738
